Results from patent US20080292736A1, “Bioavailability enhancing activity of carum carvi extracts and fractions thereof” (COUNCIL OF SCIENTIFIC AND INDUSTRIAL RESEARCH, priority 2001, published 2008).

Test: Enhancement of bioavailability of drugs given to rats with bioenhancers (plasma drug level by HPLC)
Conditions: for % Enhancement in bioavailability, BE from Carum carvi: drug with Carum carvi bioenhancer (aqueous or 50% alcoholic extract 30 mg/kg or Fraction No. 1 15 mg/kg), drug dose mg/kg; for % Enhancement in bioavailability, Carum carvi + Zingiber officinale: drug with Carum carvi bioenhancer and Zingiber officinale 35 mg/kg; for % Enhancement in bioavailability, Carum carvi + Zingiber officinale / % Enhancement in bioavailability, Carum carvi + Piperine / % Enhancement in bioavailability, BE from Zingiber officinale / % Enhancement in bioavailability, Piperine as BE: drug dose as in row; for % Enhancement in bioavailability, Carum carvi + Piperine: drug with Carum carvi bioenhancer and piperine 8 mg/kg; for % Enhancement in bioavailability, BE from Zingiber officinale: drug with Zingiber officinale 50% alcoholic extract of fresh ginger 35 mg/kg; for % Enhancement in bioavailability, Piperine as BE: drug with piperine 8 mg/kg; for % Enhancement in bioavailability, Carum carvi (Cc) Frac 1.: nutraceutical with Carum carvi Fraction No. 1 15 mg/kg; for % Enhancement in bioavailability, Carum carvi + Zingiber officinale, Frac 1. (Cc): nutraceutical with Carum carvi Fraction No. 1 and Zingiber officinale; for % Enhancement in bioavailability, Carum carvi + piperine, Frac 1. (Cc): nutraceutical with Carum carvi Fraction No. 1 and piperine; for % Enhancement in bioavailability, Carum carvi (Cc) Extr.: nutraceutical with Carum carvi extract 30 mg/kg; for % Enhancement in bioavailability, Carum carvi + Zingiber officinale, Extr. (Cc): nutraceutical with Carum carvi extract and Zingiber officinale; for % Enhancement in bioavailability, Carum carvi + piperine, Extr. (Cc): nutraceutical with Carum carvi extract and piperine
Protocol: Bioenhancers of Zingiber officinale, mean 50% alcoholic extract of fresh ginger. The doses remain unchanged whether the bioenhancers are used alone or in combination.
The amount of bioenhancers used are given below: • i. from Carum carvi: extract 30 mg/kg body weight (rats); Fraction No. 1: 15 mg/kg body weight (rats) • ii. piperine 8 mg/kg body weight (rats) • iii. Zingiber officinale: 35 mg/kg body weight (rats) • The drug used was rifampicin (40 mg/kg). The drug alone or in combination with the bioenhancers was administered to rats as given below: • Group 1: control • Group 2: Rifampicin alone • Group 3: bioenhancer alone • Group 4: Rifampicin with Carum carvi bioenhancer
Blood from the control/treated animals at predetermined intervals (0-24 hours) (total 14 timings). Rifampicin was extracted from the blood (plasma) using dichloromethane. […] The mobile phase was phosphate buffer:acetonitrile in a ratio of 40:60, and a flow rate of 1.0 ml/min.

Structure (SMILES)	% Enhancement in bioavailability, BE from Carum carvi	% Enhancement in bioavailability, Carum carvi + Zingiber officinale	% Enhancement in bioavailability, Carum carvi + Piperine	% Enhancement in bioavailability, BE from Zingiber officinale	% Enhancement in bioavailability, Piperine as BE	% Enhancement in bioavailability, Carum carvi (Cc) Frac 1.	% Enhancement in bioavailability, Carum carvi + Zingiber officinale, Frac 1. (Cc)	% Enhancement in bioavailability, Carum carvi + piperine, Frac 1. (Cc)	% Enhancement in bioavailability, Carum carvi (Cc) Extr.	% Enhancement in bioavailability, Carum carvi + Zingiber officinale, Extr. (Cc)	% Enhancement in bioavailability, Carum carvi + piperine, Extr. (Cc)
CN/C(=N/CCSCc1nc[nH]c1C)NC#N [Cimetidine]	72%	100%	84%	98%	nil						
Cn1c(=O)c2[nH]cnc2n(C)c1=O [Theophylline]	70%	89%	79%	76%	65%						
CS(=O)(=O)c1ccc(C2=C(c3ccccc3)C(=O)OC2)cc1 [Rofecoxib]	75%	80%	70%	Nil	nil						
CC(=O)N1CCN(c2ccc(OCC3COC(Cn4ccnc4)(c4ccc(Cl)cc4Cl)O3)cc2)CC1 (centres unmarked) [Ketoconazole]	55%	96%	100%	125%	105%						
[Zn] [Zinc]				nil	nil	Nil	Nil	Nil	nil	Nil	nil
Cc1ncc(CO)c(CO)c1O [Vit B 6]				Nil	Nil	Nil	Nil	Nil	nil	Nil	Nil
CC(C)NCC(O)COc1cccc2ccccc12 (centres unmarked) [Propranolol]	68%	75%	90%	76%	84%						
CN(Cc1cnc2nc(N)nc(N)c2n1)c1ccc(C(=O)N[C@@H](CCC(=O)O)C(=O)O)cc1 [Methotrexate]	76%	102%	89%	87%	65%						
CC1=C(/C=C/C(C)=C/C=C/C(C)=C/C=C/C=C(C)/C=C/C=C(C)/C=C/C2=C(C)CCCC2(C)C)C(C)(C)CCC1 [B-carotene]				35%	29%	55%	72%	59%	47%	63%	45%
Cc1nnc2n1-c1ccc(Cl)cc1C(c1ccccc1)=NC2 [Alprazolam]	Nil	80%	70%	76%	65%						
C[C@@H]1[C@H](O)[C@@H](C)/C=C/C=C/C=C/C=C/C=C/C=C/C=C/[C@H](O[C@@H]2O[C@H](C)[C@@H](O)[C@H](N)[C@@H]2O)C[C@@H]2O[C@](O)(C[C@@H](O)C[C@@H](O)[C@H](O)CC[C@@H](O)C[C@@H](O)CC(=O)O[C@H]1C)C[C@H](O)[C@H]2C(=O)O [Amphotericin B]	78%	80%	90%	Nil	nil						
C=CC1=C(C(=O)O)N2C(=O)[C@@H](NC(=O)/C(=N\O)c3csc(N)n3)[C@H]2SC1 [Cefidinir]	89%	130%	95%	35%	60%						
O=c1[nH]cc(F)c(=O)[nH]1 [5-Fluorouracil]	90%	100%	110%	110%	87%						
NCCCC[C@H](N[C@@H](CCc1ccccc1)C(=O)O)C(=O)N1CCC[C@H]1C(=O)O [Lisinopril]	79%	90%	95%	76%	85%						
[K+] [Potassium]				nil	nil	Nil	Nil	Nil	nil	Nil	nil
CS(=O)(=O)Nc1ccc([N+](=O)[O-])cc1Oc1ccccc1 [Nimesulide]	100%	145%	140%	144%	132%						
CCc1cc(C(N)=S)ccn1 [Ethionamide]	68%	70%	65%	56%	45%						
Cc1cn([C@H]2C[C@H](N=[N+]=[N-])[C@@H](CO)O2)c(=O)[nH]c1=O [Zidovudine]	92%	87%	95%	105%	140%						
CC(C)(C)NCC(O)c1ccc(O)c(CO)c1 (centres unmarked) [Salbutamol]	75%	80%	89%	78%	60%						
